41 compounds from the Kinase Knowledgebase extract (Sharma et al. 2016) can be followed below.

The target in the first experiment is EGFR (UniProt P00533).
EGFR, sequence (P00533 whole entry, looked up): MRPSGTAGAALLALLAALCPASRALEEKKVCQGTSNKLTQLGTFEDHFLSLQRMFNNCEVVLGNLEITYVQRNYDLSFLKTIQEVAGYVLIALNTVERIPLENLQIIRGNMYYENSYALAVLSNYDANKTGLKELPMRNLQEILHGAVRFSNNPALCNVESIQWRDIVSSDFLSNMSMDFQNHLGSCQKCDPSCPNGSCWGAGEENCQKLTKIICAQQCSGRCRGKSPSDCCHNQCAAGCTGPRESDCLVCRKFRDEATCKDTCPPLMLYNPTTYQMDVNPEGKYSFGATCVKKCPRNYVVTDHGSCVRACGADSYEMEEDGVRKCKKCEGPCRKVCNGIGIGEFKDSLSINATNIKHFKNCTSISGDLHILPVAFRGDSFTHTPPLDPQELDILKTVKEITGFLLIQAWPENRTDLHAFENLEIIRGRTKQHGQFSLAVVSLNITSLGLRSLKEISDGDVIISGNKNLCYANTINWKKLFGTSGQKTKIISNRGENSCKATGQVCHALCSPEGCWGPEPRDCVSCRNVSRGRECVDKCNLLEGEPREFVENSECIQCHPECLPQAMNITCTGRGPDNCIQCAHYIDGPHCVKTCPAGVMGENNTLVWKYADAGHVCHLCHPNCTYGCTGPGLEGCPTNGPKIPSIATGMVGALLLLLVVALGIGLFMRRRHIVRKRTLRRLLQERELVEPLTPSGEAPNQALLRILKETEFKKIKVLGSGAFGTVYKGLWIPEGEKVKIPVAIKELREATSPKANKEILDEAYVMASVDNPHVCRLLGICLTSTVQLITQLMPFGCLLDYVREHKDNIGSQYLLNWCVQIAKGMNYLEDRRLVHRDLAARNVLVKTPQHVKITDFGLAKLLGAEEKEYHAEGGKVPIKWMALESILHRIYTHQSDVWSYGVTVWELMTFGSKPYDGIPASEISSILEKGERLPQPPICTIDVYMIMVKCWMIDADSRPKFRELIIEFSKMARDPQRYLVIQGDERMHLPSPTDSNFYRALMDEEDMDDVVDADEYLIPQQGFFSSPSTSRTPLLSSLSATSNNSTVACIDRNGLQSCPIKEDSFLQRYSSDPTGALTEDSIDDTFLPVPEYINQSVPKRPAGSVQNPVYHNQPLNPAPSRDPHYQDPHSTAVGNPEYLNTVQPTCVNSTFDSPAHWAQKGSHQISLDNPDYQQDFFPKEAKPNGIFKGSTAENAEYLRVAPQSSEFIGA
Assay: not given
In general, IC50 refers to the concentration that inhibits the measured activity by half. In the case of `CCOc1cccc(-c2ccc3c(c2)NC(=O)/C3=C\c2cnc[nH]2)c1`, the IC50 is > 100 µM.

Take `COc1ccccc1-c1ccc2c(c1)NC(=O)/C2=C\c1[nH]c2c(c1CCC(=O)O)CCCC2`: the IC50 was > 100 µM.

As to `COc1ccccc1-c1ccc2c(c1)NC(=O)/C2=C\c1cnc[nH]1`, the IC50 was > 100 µM.

For `CCOc1cccc(-c2ccc3c(c2)NC(=O)/C3=C\c2cc(C(C)C)c(OC)c(C(C)C)c2)c1`, the IC50 was > 100 µM.

`CCc1cc(CC)c(/C=C2\C(=O)Nc3cc(-c4ccccc4)ccc32)[nH]1`: the IC50 was > 100 µM.

Consider `COc1ccc(-c2ccc3c(c2)NC(=O)/C3=C\c2[nH]c(C)cc2C)cc1`, for which the IC50 was > 100 µM.

Regarding `COc1cccc(-c2ccc3c(c2)NC(=O)/C3=C\c2[nH]c3c(c2C)CCCC3)c1`, the IC50 was > 100 µM.

With `CCOc1cccc(-c2ccc3c(c2)NC(=O)/C3=C\c2cc3c([nH]2)CCCC3)c1`, the IC50 was > 100 µM.

Take `COc1c(C(C)C)cc(/C=C2\C(=O)Nc3cc(-c4ccccc4)ccc32)cc1C(C)C`: the 50% inhibitory concentration (IC50) is > 100 µM.

`COc1cccc(-c2ccc3c(c2)NC(=O)/C3=C\c2[nH]c3c(c2CCC(=O)O)CCCC3)c1`: the IC50 was > 100 µM.

In the case of `O=C(O)CCc1c(/C=C2\C(=O)Nc3cc(-c4ccccc4)ccc32)[nH]c2c1CCCC2`, the IC50 was > 100 µM.

With `COc1cccc(-c2ccc3c(c2)NC(=O)/C3=C\c2cnc[nH]2)c1`, the IC50 is > 100 µM.

Regarding `COc1cccc(-c2ccc3c(c2)NC(=O)/C3=C\c2cc(C(C)C)c(OC)c(C(C)C)c2)c1`, the IC50 was > 100 µM.

On to `Cc1ccc(/C=C2\C(=O)Nc3cc(-c4ccccc4)ccc32)s1`, for which the IC50 is > 100 µM.

For the compound `COc1ccc(-c2ccc3c(c2)NC(=O)/C3=C\c2cnc[nH]2)cc1`, the IC50 is > 100 µM.

Turning to `CCOc1cccc(-c2ccc3c(c2)NC(=O)/C3=C\c2[nH]c(C)cc2C)c1`, the IC50 was > 100 µM.

For `CCc1cc(CC)c(/C=C2\C(=O)Nc3cc(-c4ccccc4OC)ccc32)[nH]1`, the concentration for half-maximal inhibition (IC50) was > 100 µM.

As for `CCOc1cccc(-c2ccc3c(c2)NC(=O)/C3=C\c2[nH]c(CC)cc2CC)c1`, the half-inhibitory concentration (IC50) is > 100 µM.

As to `COc1ccc(-c2ccc3c(c2)NC(=O)/C3=C\c2ccc(C)s2)cc1`, the IC50 is > 100 µM.

With `CCc1cc(CC)c(/C=C2\C(=O)Nc3cc(-c4cccc(OC)c4)ccc32)[nH]1`, the IC50 is > 100 µM.

Consider `CCc1cc(CC)c(/C=C2\C(=O)Nc3cc(-c4ccc(OC)cc4)ccc32)[nH]1`, for which the IC50 was > 100 µM.

Regarding `Cc1cc(C)c(/C=C2\C(=O)Nc3cc(-c4ccccc4)ccc32)[nH]1`, the IC50 was > 100 µM.

In the case of `COc1ccccc1-c1ccc2c(c1)NC(=O)/C2=C\c1[nH]c(C)cc1C`, the IC50 is > 100 µM.

Turning to `COc1ccc(-c2ccc3c(c2)NC(=O)/C3=C\c2cc3c([nH]2)CCCC3)cc1`, the IC50 was > 100 µM.

The target in a further experiment is CDK2 (UniProt P24941). Kind of experiment: Enzyme Assay.
Take `O=C1Nc2ccccc2/C1=C\c1c[nH]cn1`: the half-maximal inhibitory concentration (IC50) was < 0.78 µM.

`Nc1ccc2c(c1)/C(=C\c1c[nH]cn1)C(=O)N2`: the IC50 is < 0.78 µM.

As to `Cc1cc(C)c2c(c1)NC(=O)/C2=C/c1c[nH]cn1`, the IC50 was < 0.78 µM.

Turning to `O=C1Nc2ccc(Cl)cc2/C1=C\c1c[nH]cn1`, the IC50 is < 0.78 µM.

`O=C1Nc2c(Br)cc(Cl)cc2/C1=C\c1c[nH]cn1` registered an IC50 of 9.3 µM.

As to `O=C1Nc2ccc([N+](=O)[O-])cc2/C1=C\c1c[nH]cn1`, the IC50 was < 0.78 µM.

For the compound `COc1cc2c(cc1OC)/C(=C\c1c[nH]cn1)C(=O)N2`, the IC50 was 2.4 µM.

`O=C1Nc2ccc(F)cc2/C1=C\c1c[nH]cn1`: the IC50 came out at 7.7 µM.

The target of another experiment is EGFR (UniProt P00533).
Assay: not given
The source holds these as a separate data set.
Consider `CCOc1cccc(-c2ccc3c(c2)NC(=O)/C3=C\c2ccc(C)s2)c1`, for which the IC50 is > 100 µM.

Consider `COc1cccc(-c2ccc3c(c2)NC(=O)/C3=C\c2[nH]c(C)cc2C)c1`, for which the IC50 is > 100 µM.

For the compound `COc1cccc(-c2ccc3c(c2)NC(=O)/C3=C\c2ccc(N3CCN(C=O)CC3)cc2)c1`, the IC50 is > 100 µM.

Take `COc1ccc(-c2ccc3c(c2)NC(=O)/C3=C\c2[nH]c3c(c2CCC(=O)O)CCCC3)cc1`: the IC50 was > 100 µM.

Consider `O=C1Nc2cc(-c3ccccc3)ccc2/C1=C/c1cc2c([nH]1)CCCC2`, for which the IC50 is > 100 µM.

On to `O=C1Nc2cc(-c3ccccc3)ccc2/C1=C/c1cnc[nH]1`, for which the IC50 is > 100 µM.

`COc1ccc(-c2ccc3c(c2)NC(=O)/C3=C\c2[nH]c3c(c2C)CCCC3)cc1`: the IC50 was > 100 µM.

Take `COc1ccccc1-c1ccc2c(c1)NC(=O)/C2=C\c1cc2c([nH]1)CCCC2`: the IC50 is > 100 µM.

In the case of `COc1ccccc1-c1ccc2c(c1)NC(=O)/C2=C\c1[nH]c2c(c1C)CCCC2`, the IC50 was > 100 µM.

In the case of `CCOc1cccc(-c2ccc3c(c2)NC(=O)/C3=C\c2cnc[nH]2)c1`, the IC50 was > 100 µM.

As to `COc1ccccc1-c1ccc2c(c1)NC(=O)/C2=C\c1[nH]c2c(c1CCC(=O)O)CCCC2`, the IC50 is > 100 µM.

Regarding `COc1ccccc1-c1ccc2c(c1)NC(=O)/C2=C\c1cnc[nH]1`, the IC50 is > 100 µM.

Turning to `CCOc1cccc(-c2ccc3c(c2)NC(=O)/C3=C\c2cc(C(C)C)c(OC)c(C(C)C)c2)c1`, the IC50 is > 100 µM.

As to `CCc1cc(CC)c(/C=C2\C(=O)Nc3cc(-c4ccccc4)ccc32)[nH]1`, the IC50 is > 100 µM.

Turning to `COc1ccc(-c2ccc3c(c2)NC(=O)/C3=C\c2[nH]c(C)cc2C)cc1`, the IC50 was > 100 µM.

For `COc1cccc(-c2ccc3c(c2)NC(=O)/C3=C\c2[nH]c3c(c2C)CCCC3)c1`, the IC50 was > 100 µM.

In the case of `CCOc1cccc(-c2ccc3c(c2)NC(=O)/C3=C\c2cc3c([nH]2)CCCC3)c1`, the IC50 was > 100 µM.

Regarding `COc1c(C(C)C)cc(/C=C2\C(=O)Nc3cc(-c4ccccc4)ccc32)cc1C(C)C`, the IC50 was > 100 µM.

In turn, `COc1cccc(-c2ccc3c(c2)NC(=O)/C3=C\c2[nH]c3c(c2CCC(=O)O)CCCC3)c1` returned an IC50 of 11.4 µM.

As for `O=C(O)CCc1c(/C=C2\C(=O)Nc3cc(-c4ccccc4)ccc32)[nH]c2c1CCCC2`, the IC50 was > 100 µM.

For `COc1cccc(-c2ccc3c(c2)NC(=O)/C3=C\c2cnc[nH]2)c1`, the IC50 was > 100 µM.

For `COc1cccc(-c2ccc3c(c2)NC(=O)/C3=C\c2cc(C(C)C)c(OC)c(C(C)C)c2)c1`, the IC50 is > 100 µM.

In the case of `Cc1ccc(/C=C2\C(=O)Nc3cc(-c4ccccc4)ccc32)s1`, the IC50 is > 100 µM.

Take `COc1ccc(-c2ccc3c(c2)NC(=O)/C3=C\c2cnc[nH]2)cc1`: the IC50 is > 100 µM.

Consider `CCOc1cccc(-c2ccc3c(c2)NC(=O)/C3=C\c2[nH]c(C)cc2C)c1`, for which the IC50 was > 100 µM.

For the compound `CCc1cc(CC)c(/C=C2\C(=O)Nc3cc(-c4ccccc4OC)ccc32)[nH]1`, the IC50 is > 100 µM.

Consider `CCOc1cccc(-c2ccc3c(c2)NC(=O)/C3=C\c2[nH]c(CC)cc2CC)c1`, for which the IC50 was > 100 µM.

On to `COc1ccc(-c2ccc3c(c2)NC(=O)/C3=C\c2ccc(C)s2)cc1`, for which the IC50 is > 100 µM.

Regarding `CCc1cc(CC)c(/C=C2\C(=O)Nc3cc(-c4cccc(OC)c4)ccc32)[nH]1`, the IC50 is > 100 µM.

For `CCc1cc(CC)c(/C=C2\C(=O)Nc3cc(-c4ccc(OC)cc4)ccc32)[nH]1`, the IC50 is > 100 µM.

For `Cc1cc(C)c(/C=C2\C(=O)Nc3cc(-c4ccccc4)ccc32)[nH]1`, the IC50 was > 100 µM.

Turning to `COc1ccccc1-c1ccc2c(c1)NC(=O)/C2=C\c1[nH]c(C)cc1C`, the IC50 is > 100 µM.

Turning to `COc1ccc(-c2ccc3c(c2)NC(=O)/C3=C\c2cc3c([nH]2)CCCC3)cc1`, the IC50 was > 100 µM.
